Source: patent US9637490B2, “Antifungal 5,6-dihydro-4-[(difluoroethyl)phenyl]-4H-pyrrolo[1,2-α][1,4]benzodiazepine and 4-(difluoroethyl)phenyl-6H-pyrrolo[1,2-α][1,4]benzodiazepine derivatives” (Janssen Pharmaceutica NV, priority 2010, dated 2017)

Assays:
[1] = tested on: Microsporum canis B68128; assay: Antifungal activity in vitro (resazurin susceptibility screen), Inf. B; assay type: cell-based; settings: 27 °C, 9 days, resa time 24 hours; for pIC50 Inf. B: Microsporum canis B68128; for IC50: Microsporum canis, B68128, Microsporum canis B68128
Experimental: (§1) The standard susceptibility screen was performed in 96-well plates (U-bottom, Greiner Bio-One). Serial dilutions (2-fold or 4-fold) of 20 mM compound stock solutions were made in 100% DMSO, followed by an intermediate dilution step in water. These serial dilutions (10 μl) were then spotted onto test-plates that could be stored in the dark at 4° C. for a maximum period of 2 weeks. An adequate broad dose-range was included with 64 μM as the highest in-test concentration. The culture medium RPMI-1640 was supplemented with L-glutamine, 2% glucose and buffered with 3-(N-morpholino)-propanesulfonic acid (MOPS) at pH 7.0±0.1. The different fungal species/isolates (Table 3a) were cryopreserved and 1/1000 diluted in medium just prior to use. A standard inoculum of 200 μl containing 10^3 colony-forming unit (cfu) was then added to each well. A positive control (100% growth=fungal culture without antifungal) and a negative control (0% growth=RPMI-MOPS medium) were included on each plate. Optimal incubation time and temperature were dependent on the fungal species and vary from 24 h for yeasts (37° C.) to one week or more for dermatophytes (27° C.). Inhibition of fungal growth was measured after adding 10 μl of 0.005% (w/v) resazurin (Sigma Aldrich) to each well, based on the principle that living cells convert the non-fluorescent blue resazurin into the pink and fluorescent resorufin, allowing fluorimetric reading (λhd ex 550 nm and μem 590 nm) after an additional incubation period (‘resa’ time mentioned in Table 3a). [table]

[2] = tested on: Candida parapsilosis B66126; assay: Antifungal activity in vitro (resazurin susceptibility screen), Inf. D; assay type: cell-based; settings: 37 °C, 24 hours, resa time 4 hours; for pIC50 Inf. D: Candida parapsilosis B66126; for IC50: Lodderomyces parapsilosis, B66126, Candida parapsilosis B66126
Experimental: as §1

[3] = tested on: Trichophyton mentagrophytes B70554; assay: Antifungal activity in vitro (resazurin susceptibility screen), Inf. G; assay type: cell-based; settings: 27 °C, 7 days, resa time 24 hours; for pIC50 Inf. G: Trichophyton mentagrophytes B70554; for IC50: Trichophyton mentagrophytes, B70554, Trichophyton mentagrophytes B70554
Experimental: as §1

[4] = tested on: Aspergillus fumigatus B42928; assay: Antifungal activity in vitro (resazurin susceptibility screen), Inf. E; assay type: cell-based; settings: 27 °C, 48 hours, resa time 17 hours; for pIC50 Inf. E: Aspergillus fumigatus B42928; for IC50: Aspergillus fumigatus, B42928, Aspergillus fumigatus B42928
Experimental: as §1

[5] = tested on: Sporothrix schenkii B62482; assay: Antifungal activity in vitro (resazurin susceptibility screen), Inf. A; assay type: cell-based; settings: 27 °C, 4 days, resa time 24 hours; for pIC50 Inf. A: Sporothrix schenkii B62482; for IC50: Sporothrix, B62482, Sporothrix schenkii B62482
Experimental: as §1

[6] = tested on: Trichophyton rubrum B68183; assay: Antifungal activity in vitro (resazurin susceptibility screen), Inf. C; assay type: cell-based; settings: 27 °C, 7 days, resa time 24 hours; for pIC50 Inf. C: Trichophyton rubrum B68183; for IC50: Trichophyton rubrum, B68183, Trichophyton rubrum B68183
Experimental: as §1

[7] = tested on: Cryptococcus neoformans B66663; assay: Antifungal activity in vitro (resazurin susceptibility screen), Inf. F; assay type: cell-based; settings: 37 °C, 24 hours, resa time 4 hours; for pIC50 Inf. F: Cryptococcus neoformans B66663; for IC50: Cryptococcus neoformans, B66663, Cryptococcus neoformans B66663
Experimental: as §1

[8] = tested on: Scedosporium apiospermum IHEM3817; assay: Antifungal activity in vitro (resazurin susceptibility screen), Inf. H; assay type: cell-based; settings: 37 °C, 48 hours, resa time 17 hours; for IC50: Scedosporium apiospermum, IHEM3817, Scedosporium apiospermum IHEM3817
Experimental: as §1

[9] = tested on: Rhizomucor miehei IHEM13391; assay: Antifungal activity in vitro (resazurin susceptibility screen), Inf. K; assay type: cell-based; settings: 37 °C, 48 hours, resa time 17 hours; for IC50: Rhizomucor miehei, IHEM13391, Rhizomucor miehei IHEM13391
Experimental: as §1

[10] = tested on: Rhizopus oryzae IHEM5223; assay: Antifungal activity in vitro (resazurin susceptibility screen), Inf. J; assay type: cell-based; settings: Rhizopus arrhizus, 37 °C, 24 hours, resa time 6 hours
Experimental: as §1

[11] = tested on: Mucor circinelloides IHEM21105; assay: Antifungal activity in vitro (resazurin susceptibility screen), Inf. L; assay type: cell-based; settings: 27 °C, 48 hours, resa time 17 hours
Experimental: as §1

[12] = tested on: Scedosporium prolificans IHEM21157; assay: Antifungal activity in vitro (resazurin susceptibility screen), Inf. I; assay type: cell-based; settings: Lomentospora prolificans, 37 °C, 48 hours, resa time 17 hours
Experimental: as §1

Row | melting point | IC50 [1] [nM] | IC50 [2] [nM] | IC50 [3] [nM] | IC50 [10] [nM] | IC50 [4] [nM] | IC50 [5] [nM] | IC50 [6] [nM] | IC50 [11] [nM] | IC50 [8] [nM] | IC50 [9] [nM] | IC50 [7] [nM] | IC50 [12] [nM] | Compound | also measured
1 | 132.1 to 134.2 °C | 17400 | > 64600 | 2450 | > 64600 | 933 | 2630 | 5890 | > 64600 | > 64600 | > 64600 | 1410 |  | CC(F)(F)c1ccc(C2=NCc3cc(Cl)cc(Cl)c3-n3cccc32)cc1 [Compound 6, 8,10-dichloro-4-[4-(1,1-difluoroethyl)phenyl]-6H-pyrrolo[1,2-a][1,4]benzodiazepine] | 
2 | 162.3 to 163.5 °C | 3980 | > 64600 | 60300 |  | > 64600 | > 64600 | 3020 |  |  |  | > 64600 |  | CC(F)(F)c1ccc(C2=NCc3c(Cl)ccc(Cl)c3-n3cccc32)cc1 [Compound 8, 7,10-dichloro-4-[4-(1,1-difluoroethyl)phenyl]-6H-pyrrolo[1,2-a][1,4]benzodiazepine] | 
3 | 89.6 to 91.2 °C | 2000 | 10700 | 1660 | > 64600 | 1700 | 3800 | 617 | > 64600 | 10200 | > 64600 | 724 | 1200 | Cc1cc(Cl)cc2c1CN=C(c1ccc(C(C)(F)F)cc1)c1cccn1-2 [Compound 16, 9-chloro-4-[4-(1,1-difluoroethyl)phenyl]-7-methyl-6H-pyrrolo[1,2-a][1,4]-benzodiazepine] | 
4 | 247.5 °C (dec.) | 2040 | 13200 | 646 | 9770 | 2040 | 2820 | 214 | > 64600 | 2340 | 14500 | 1620 | 513 | CC(F)(F)c1ccc(C2=NCc3cccc(Cl)c3-n3cccc32)cc1 [Compound 19, 10-chloro-4-[4-(1,1-difluoroethyl)phenyl]-6H-pyrrolo[1,2-a][1,4]benzodiazepine] | 
5 |  | 513 | 12900 | 794 | > 64600 | 112 | > 64600 | 145 | > 64600 | 575 | 26900 | > 64600 | 158 | CC(F)(F)c1cc(C2=NCc3c(F)cccc3-n3cccc32)ccc1F [Compound 20, 4-[3-(1,1-difluoroethyl)-4-fluorophenyl]-7-fluoro-6H-pyrrolo[1,2-a][1,4]benzodiazepine] | 
6 |  | 479 | 2450 | 692 | > 64600 | 126 | 3720 | 195 | > 64600 | 89.1 | 6610 | 1580 | 50.1 | CC(F)(F)c1cc(C2=NCc3c(Cl)cccc3-n3cccc32)ccc1F [Compound 21, 7-chloro-4-[3-(1,1-difluoroethyl)-4-fluorophenyl]-6H-pyrrolo[1,2-a][1,4]benzodiazepine] | 
7 | 140.9 to 142.1 °C | 7760 | > 64600 | > 64600 |  | > 64600 | > 64600 | 7760 |  |  |  | > 64600 |  | CC(F)(F)c1ccc(C2=NCc3ccc(Cl)c(Cl)c3-n3cccc32)cc1 [Compound 22, 9,10-dichloro-4-[4-(1,1-difluoroethyl)phenyl]-6H-pyrrolo[1,2-a][1,4]benzodiazepine] | 
8 | 143.2 to 144.3 °C | 417 | 3630 | 794 | > 64600 | 537 | 9550 | 129 | > 64600 | 182 | > 64600 | > 64600 | 100 | CC(F)(F)c1cc(C2=NCc3c(F)cc(F)cc3-n3cccc32)ccc1F [Compound 23, 4-[3-(1,1-difluoroethyl)-4-fluorophenyl]-7,9-difluoro-6H-pyrrolo[1,2-a][1,4]-benzodiazepine] | 
9 | 124.2 to 125.4 °C | 1580 | > 64600 | 2190 | > 64600 | 1020 | 14100 | 1260 | > 64600 | 407 | > 64600 | > 64600 | 501 | CC(F)(F)c1cc(C2=NCc3c(Cl)cc(Cl)cc3-n3cccc32)ccc1F [Compound 25, 7,9-dichloro-4-[3-(1,1-difluoroethyl)-4-fluorophenyl]-6H-pyrrolo[1,2-a][1,4]-benzodiazepine] | 
10 |  | 513 | 1820 | 1510 | > 64600 | 501 | 2450 | 288 | > 64600 | 437 | 8320 | 1020 | 100 | CC(F)(F)c1ccc(C2=NCc3c(Cl)cc(F)cc3-n3cccc32)cc1 [Compound 27, 7-chloro-4-[4-(1,1-difluoroethyl)phenyl]-9-fluoro-6H-pyrrolo[1,2-a][1,4]benzodiazepine] | 

Row | Compound | melting point | IC50 [1] [nM] | IC50 [2] [nM] | IC50 [3] [nM] | IC50 [10] [nM] | IC50 [4] [nM] | IC50 [5] [nM] | IC50 [6] [nM] | IC50 [11] [nM] | IC50 [8] [nM] | IC50 [9] [nM] | IC50 [7] [nM] | IC50 [12] [nM] | also measured
11 | CC(F)(F)c1ccc(C2NCc3c(Cl)cccc3-n3cccc32)cc1.Cl [Compound 2, (4S)-7-chloro-4-[4-(1,1-difluoroethyl)phenyl]-5,6-dihydro-4H-pyrrolo[1,2-a][1,4]-benzodiazepine.HCl] | 206.7 to 207.6 °C |  |  |  |  |  |  |  |  |  |  |  |  | pIC50 Inf. B [1]: 5.09; pIC50 Inf. D [2]: <4.19; pIC50 Inf. G [3]: 5.43; pIC50 Inf. E [4]: <4.19; pIC50 Inf. A [5]: <4.19; pIC50 Inf. C [6]: 5.82; pIC50 Inf. F [7]: <4.19
12 | CC(F)(F)c1ccc(C2NCc3c(Cl)cccc3-n3cccc32)cc1.Cl [Compound 3, (4R)-7-chloro-4-[4-(1,1-difluoroethyl)phenyl]-5,6-dihydro-4H-pyrrolo[1,2-a][1,4]-benzodiazepine.HCl] | 206.3 to 206.8 °C |  |  |  |  |  |  |  |  |  |  |  |  | pIC50 Inf. B [1]: 6.30; pIC50 Inf. D [2]: 5.58; pIC50 Inf. G [3]: 6.36; pIC50 Inf. E [4]: 5.70; pIC50 Inf. A [5]: <4.19; pIC50 Inf. C [6]: 6.96; pIC50 Inf. H ([8]; Scedosporium apiospermum IHEM3817): 5.13; pIC50 Inf. K ([9]; Rhizomucor miehei IHEM13391): 4.59; pIC50 Inf. F [7]: 5.26
13 | CC(F)(F)c1ccc(C2NCc3c(Cl)cc(F)cc3-n3cccc32)cc1.Cl (stereo not shown) [Compound 24, 7-chloro-4-[4-(1,1-difluoroethyl)phenyl]-9-fluoro-5,6-dihydro-4H-pyrrolo[1,2-a][1,4]-benzodiazepine.HCl] | 240 to 240.7 °C | 7760 | 2630 | 1700 |  | 11500 | > 64600 | 617 |  |  |  | > 64600 |  | 
